Literature values as cited in patent US20130046087A1, “Substituted Cyclodextrin Derivatives Useful As Intermediates For Producing Biologically Active Materials” (Arcarios BV, priority 2010, published 2013).

Tested on: rabbit model of experimental osteoarthritis
Details: subcutaneously administered, per Osteoarthritis and Cartilage (2008) 16:986-993

Substance: β-cyclodextrin polysulfate
- effect on cartilage lesions and osteocyte formation in the affected joints: reduced the cartilage lesions and osteocyte formation
